Among the test systems are CAKI-1 renal; DU-145 prostate; NCI-H460 lung; UACC-62 melanoma; HS 578T breast; SK-MEL-28 melanoma; MDA-N; MDA-MB-231 breast; SW-620 colon; U251 CNS.
Holding throughout (test): NCI anticancer screen, dose series, 48 h

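Results reflect a 48-hour exposure of cells in 96-well plates to compound at five concentrations. TGI: concentration producing complete growth inhibition.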

With `Nc1nc(Cl)cc(NCC2(CO)CCC(CCc3ccccc3)C2)n1` (stereo not given), the TGI in the assay with CAKI-1 renal was found to be 30.2 µM; in the assay with DU-145 prostate, 30.2 µM; in the assay with NCI-H460 lung, 27.3 µM; in the assay on UACC-62 melanoma, 28.3 µM; in the assay with HS 578T breast, 52.7 µM; in the assay on SK-MEL-28 melanoma, 37.3 µM. Besides, the TGI with MDA-N was determined as 28.1 µM; in the assay with MDA-MB-231 breast it was 33.6 µM; in the assay with SW-620 colon, 36 µM; in the assay on U251 CNS, 31.1 µM.

Take `c1csc(-c2ccc(-c3cccs3)c3nsnc23)c1`: the TGI with CAKI-1 renal is more than 100 µM; with DU-145 prostate it was more than 70.6 µM; in the assay with NCI-H460 lung, more than 100 µM; with UACC-62 melanoma it was more than 100 µM; with HS 578T breast it was 47.2 µM; in the assay with SK-MEL-28 melanoma, more than 54.2 µM. Moreover, the TGI was more than 73.4 µM in the assay with MDA-N, more than 31.6 µM with MDA-MB-231 breast, more than 50 µM in the assay on SW-620 colon and more than 87.5 µM in the assay on U251 CNS.

Turning to `COC(=O)CN1c2nc(C#N)c(C#N)nc2N(CC(=O)OC)c2nc(C#N)c(C#N)nc21`, the TGI in the assay with CAKI-1 renal was 1.55 µM; in the assay with DU-145 prostate it was 18.3 µM; in the assay with NCI-H460 lung, more than 71 µM; in the assay with UACC-62 melanoma it was 42.4 µM; with HS 578T breast it was 39.6 µM; in the assay with SK-MEL-28 melanoma it was more than 100 µM. Besides, the TGI in the assay on MDA-N was more than 100 µM; with MDA-MB-231 breast it was more than 52.9 µM; with SW-620 colon, more than 25.9 µM; with U251 CNS, more than 57.1 µM.

Regarding `O=C(O)c1cc(-c2ccc3c(O)c(O)ccc3c2)ccc1O`, the TGI in the assay on CAKI-1 renal was 25.6 µM; in the assay with DU-145 prostate it was more than 75 µM; with NCI-H460 lung, more than 7.5 µM; with UACC-62 melanoma, more than 75 µM; in the assay with HS 578T breast it was more than 75 µM; in the assay on SK-MEL-28 melanoma, more than 75 µM. For the same molecule, the TGI is more than 75 µM with MDA-N, 54.1 µM in the assay on MDA-MB-231 breast, 36.8 µM with SW-620 colon and 26.1 µM in the assay with U251 CNS.

With `O=C(CNc1c(Cl)cccc1Cl)NC1C=Cc2ccc(S(=O)(=O)Nc3c(Cl)cccc3Cl)cc2C1=O` (stereo not given), the TGI in the assay with CAKI-1 renal, in the assay on DU-145 prostate, in the assay with NCI-H460 lung, in the assay with UACC-62 melanoma, in the assay on HS 578T breast and in the assay with SK-MEL-28 melanoma was more than 100 µM in each case. Besides, the TGI in the assay with MDA-N, in the assay on MDA-MB-231 breast, in the assay on SW-620 colon and in the assay on U251 CNS was more than 100 µM in each case.

With `C[C@@H]1S[C@H](c2ccccc2F)N2Cc3ccccc3N=C12`, the TGI was more than 100 µM in the assay on CAKI-1 renal; more than 100 µM with DU-145 prostate; more than 100 µM in the assay with NCI-H460 lung; 54.8 µM in the assay on UACC-62 melanoma; more than 100 µM in the assay on HS 578T breast; more than 100 µM with SK-MEL-28 melanoma. Also, the TGI was 48.4 µM with MDA-N, more than 100 µM in the assay on MDA-MB-231 breast, more than 100 µM with SW-620 colon and more than 100 µM in the assay on U251 CNS.

Regarding `ClC(Cl)=C1C(=C(Cl)Cl)C(Cl)(Cl)C1(Cl)Cl`, the TGI in the assay with CAKI-1 renal amounted to 8.14 µM; with DU-145 prostate, 23.4 µM; in the assay on NCI-H460 lung it was 16.6 µM; with UACC-62 melanoma, 5.36 µM; in the assay with HS 578T breast it was 10.4 µM; in the assay with SK-MEL-28 melanoma, 4.06 µM. Besides, the TGI in the assay with MDA-N was determined as 2.81 µM; in the assay on MDA-MB-231 breast, 4.81 µM; with SW-620 colon, 3.75 µM; with U251 CNS, 13.9 µM.

As to `O=C(O)C(SC1=NNC2(C(=O)N1)c1ccccc1-c1ccccc12)SC1=NNC2(C(=O)N1)c1ccccc1-c1ccccc12`, the TGI in the assay with CAKI-1 renal, in the assay with DU-145 prostate, in the assay with NCI-H460 lung, in the assay with UACC-62 melanoma, in the assay on HS 578T breast and with SK-MEL-28 melanoma was more than 10 µM in each case. Further, the TGI in the assay on MDA-N, in the assay on MDA-MB-231 breast, with SW-620 colon and in the assay with U251 CNS was more than 10 µM in each case.

Turning to `C[C@@H](Cl)[C@H]1CCCN(Cc2ccc(Br)cc2)C1`, the TGI in the assay on CAKI-1 renal, in the assay on DU-145 prostate, in the assay on NCI-H460 lung, with UACC-62 melanoma, with HS 578T breast and with SK-MEL-28 melanoma was more than 12.5 µM in each case. In addition, the TGI with MDA-N, in the assay on MDA-MB-231 breast, with SW-620 colon and in the assay on U251 CNS was more than 12.5 µM each time.

Turning to `COC(=O)c1c2c(cc3c1CCC3)CCC2`, the TGI in the assay on CAKI-1 renal, with DU-145 prostate, in the assay with NCI-H460 lung, in the assay on UACC-62 melanoma, with HS 578T breast and in the assay with SK-MEL-28 melanoma was more than 100 µM in each case. In addition, the TGI in the assay with MDA-N, in the assay on MDA-MB-231 breast, with SW-620 colon and in the assay with U251 CNS was more than 100 µM each time.

With `CCOC(CNCCC(=O)OC)OCC`, the TGI in the assay with CAKI-1 renal, with DU-145 prostate, in the assay on NCI-H460 lung, in the assay on UACC-62 melanoma, in the assay on HS 578T breast and in the assay on SK-MEL-28 melanoma was more than 10 µM throughout. Further, the TGI in the assay on MDA-N, with MDA-MB-231 breast, in the assay with SW-620 colon and in the assay on U251 CNS was more than 10 µM in each case.

For the molecule `Cc1ccc(OCCn2cc(Nc3ccccc3)c(=O)n(CCOc3ccc(C)cc3)c2=O)cc1`, the TGI in the assay with CAKI-1 renal, in the assay on DU-145 prostate, with NCI-H460 lung, in the assay with UACC-62 melanoma, with HS 578T breast and in the assay on SK-MEL-28 melanoma was more than 100 µM each time. The TGI in the assay on MDA-N, in the assay on MDA-MB-231 breast, in the assay with SW-620 colon and with U251 CNS was more than 100 µM each time.

With `COc1cc(-c2cc(=O)c3cc4c(=O)cc(-c5cc(OC)c(OC)c(OC)c5)oc4cc3o2)cc(OC)c1OC`, the TGI in the assay on CAKI-1 renal was more than 31.6 µM; with DU-145 prostate, more than 100 µM; in the assay with NCI-H460 lung it was more than 100 µM; in the assay with UACC-62 melanoma, more than 64.5 µM; with HS 578T breast, 97.2 µM; in the assay on SK-MEL-28 melanoma, more than 100 µM. For the same molecule, the TGI is more than 100 µM in the assay with MDA-N, more than 64.5 µM in the assay with MDA-MB-231 breast, more than 100 µM in the assay on SW-620 colon and 23.4 µM with U251 CNS.

For `CC(O)CCCOC(c1ccccc1)(c1ccccc1)c1ccccc1` (stereo not given), the TGI turned out to be 29.9 µM with CAKI-1 renal; 30.4 µM in the assay with DU-145 prostate; 30.6 µM in the assay on NCI-H460 lung; 27 µM in the assay with UACC-62 melanoma; 39.6 µM in the assay on HS 578T breast; 30.1 µM in the assay on SK-MEL-28 melanoma. Also, the TGI in the assay with MDA-N came out at 31.7 µM; with MDA-MB-231 breast, 33.3 µM; with SW-620 colon, 32.3 µM; in the assay on U251 CNS, 30.3 µM.

With `CC(=O)c1cccn1/C=C(\OC(=O)OC(C)(C)C)c1ccc[nH]1`, the TGI was 91.2 µM in the assay on CAKI-1 renal; more than 100 µM in the assay with DU-145 prostate; more than 100 µM in the assay with NCI-H460 lung; more than 100 µM in the assay on UACC-62 melanoma; more than 100 µM in the assay with HS 578T breast; more than 100 µM in the assay on SK-MEL-28 melanoma. The TGI with MDA-N, in the assay with MDA-MB-231 breast, in the assay with SW-620 colon and with U251 CNS was more than 100 µM in each case.

`O=c1[nH]cnc2c1ncn2[C@@H]1C[C@@H]1CO`: the TGI in the assay on CAKI-1 renal, with DU-145 prostate, with NCI-H460 lung, with UACC-62 melanoma, in the assay on HS 578T breast and in the assay with SK-MEL-28 melanoma was more than 100 µM throughout. The TGI with MDA-N, in the assay on MDA-MB-231 breast, with SW-620 colon and with U251 CNS was more than 100 µM in each case.

For the molecule `O=[N+]([O-])c1ccc(/C=C/c2cc(-c3ccccc3)nc3ccc4ccccc4c23)cc1`, the TGI with CAKI-1 renal, with DU-145 prostate, in the assay on NCI-H460 lung, in the assay with UACC-62 melanoma, in the assay with HS 578T breast and in the assay with SK-MEL-28 melanoma was more than 100 µM each time. Moreover, the TGI in the assay on MDA-N, in the assay with MDA-MB-231 breast, in the assay on SW-620 colon and in the assay on U251 CNS was more than 100 µM throughout.

The values above are taken from PubChem BioAssay (NCI).
